Results published in PubChem BioAssay AID504356 (Broad Institute, 2011).
Calls of active or inactive are those of the source.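 The calls were made as follows: active = curve reaching 10% of positive control caspase signal at or below the top valid tested dose; inactive = opposite-direction activity, or no crossing across tested range.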

How the values were obtained:
[1] = caspase activation in TSA-primed A1-expressing MEWO, dose response, orthogonal assay for A1 inhibitor project, cell-based, Trichostatin A primed, luminescence, set 2 (AID 504356); conditions: MEWO A1-expressing, TSA primed, caspase-Glo luminescence, 3 h, stronger effect = higher value
[2] = system: MEWO A1-expressing, TSA primed, caspase-Glo luminescence, 3 h; assay: as above

For `O=c1oc2ccccc2c(Cl)c1[N+](=O)[O-]`, the max caspase activation ([1]; at 30 µM) was -5.13% (inactive).
For `O=[N+]([O-])c1cnc2ccccc2c1Sc1ccccc1`, the AC10 [2] was > 30 µM (inactive).
With `O=C(Oc1cccc(/C=N/Nc2nc(Nc3ccccc3)nc(N3CCOCC3)n2)c1)c1ccco1` the max caspase activation ([1]; at 3.8 µM) was 2.46% (inactive).
With `O=c1oc2ccccc2c(N2CCCCC2)c1[N+](=O)[O-]` the max caspase activation ([1]; at 0.235 µM) was -1.97% (inactive).
For `Cc1ccc(Sc2cc(=O)n(C)c3ccccc23)cc1`, the max caspase activation ([1]; at 30 µM) was -5.85% (inactive).
For `O=c1oc2ccccc2c(Nc2cc(Cl)cc(Cl)c2)c1[N+](=O)[O-]`, the max caspase activation ([1]; at 0.12 µM) was 2.71% (inactive).
In the case of `CN1C(=O)C(C)(C)N(Cc2ccccc2)c2ccccc21`, the max caspase activation ([1]; at 16 µM) was -0.643% (inactive).
For `Cc1ccc(Sc2c([N+](=O)[O-])c(=O)oc3ccccc23)cc1`, the max caspase activation ([1]; at 16 µM) was -4.17% (inactive).
In the case of `Cn1c(=O)c([N+](=O)[O-])c(-n2cnc3ccccc32)c2ccccc21`, the AC10 [2] was > 30 µM (inactive).
For `C/C1=C/C(=O)O[C@@H]2C[C@@H](CC[C@H](C)/C=C\CC1)O[C@@](O)(C1CSC(=O)N1)C2` (stereo partly specified), the max caspase activation ([1]; at 30 µM) was 2.64% (inactive).
In the case of `Cc1ccc(Sc2c([N+](=O)[O-])c(=O)n(C)c3ccccc23)cc1`, the AC10 [2] was > 30 µM (inactive).
For `Cc1ccc(Nc2c([N+](=O)[O-])c(=O)oc3ccccc23)cc1`, the max caspase activation ([1]; at 16 µM) was 1.85% (inactive).
In the case of `CCSc1c([N+](=O)[O-])c(=O)oc2ccccc12`, the max caspase activation ([1]; at 8 µM) was 2.46% (inactive).
For `Cn1c(=O)c([N+](=O)[O-])c(Nc2ccc(Cl)cc2)c2ccccc21`, the max caspase activation ([1]; at 0.235 µM) was 3.04% (inactive).
`Cc1ccc(Sc2c([N+](=O)[O-])cnc3ccccc23)cc1` gave an AC10 [2] of 24.9 µM.
For `Cn1c(=O)c([N+](=O)[O-])c(Cl)c2ccccc21`, the max caspase activation ([1]; at 8 µM) was 9.18% (inactive).
With `O=c1oc2ccccc2c(Sc2ccccc2)c1[N+](=O)[O-]` the max caspase activation ([1]; at 30 µM) was -5.41% (inactive).
For `Cn1c(=O)c([N+](=O)[O-])c(Oc2ccccc2)c2ccccc21`, the max caspase activation ([1]; at 30 µM) was 2.08% (inactive).
In the case of `Cc1ccc(Nc2c([N+](=O)[O-])c(=O)n(C)c3ccccc23)cc1`, the max caspase activation ([1]; at 0.5 µM) was 1.48% (inactive).
In the case of `CCOCCCNc1c([N+](=O)[O-])c(=O)n(C)c2ccccc12`, the max caspase activation ([1]; at 8 µM) was 1.97% (inactive).
With `CCOC(=O)N1CCN(c2c([N+](=O)[O-])c(=O)n(C)c3ccccc23)CC1` the max caspase activation ([1]; at 8 µM) was 0.764% (inactive).
